Measured values taken from patent US7964616B2, “Compounds 679” (AstraZeneca AB, priority 2007, dated 2011).

Tests used:
[1] = biological target: T1, ion channel subunit encoded by the human ether-a-go-go-related gene (hERG) (Homo sapiens, UniProt Q12809); assay: hERG binding protocol (radioligand competition, HEK cell membranes expressing hERG); settings: for IC50: a 'less than' figure indicates <50% inhibition at the quoted concentration, the highest tested, read-out: hERG pIC50 (converted); for P2X7:hERG Ratio: ratio of P2X7:hERG affinity
T1 construct: expressed in transfected cells; host or cells: HEK (human embryonic kidney) cells, membrane preparation
Experimental: The hERG assay was performed according to the procedure described in WO2005/037052. The affinity (pIC50) of compounds for the ion channel subunit encoded by the human ether-a-go-go-related gene (hERG) gene was determined by competition binding of radioligand 3,7-Bis[2-(4-nitro[3,5-^3H]phenyl)ethyl]-3,7-diazabicyclo[3.3.1]nonane to HEK (human embryonic kidney) cell membranes expressing hERG, in a filter wash format.
Membranes were incubated for 3 hours at room temperature with serial dilutions of the test compounds, radioligand 3,7-Bis[2-(4-nitro[3,5-^3H]phenyl)ethyl]-3,7-diazabicyclo[3.3.1]nonane at 1 nM final concentration, and assay buffer (10 mM HEPES, 130 mM NaCl, 5 mM KCl, 1 mM EGTA, 0.8 mM MgCl2, pH 7.4). The assay was conducted in a final volume of 200 μL, in the presence of 1% (v/v) dimethyl sulphoxide. Non-specific binding was determined by measuring the binding of 3,7-Bis[2-(4-nitro[3,5-^3H]phenyl)ethyl]-3,7-diazabicyclo[3.3.1]nonane in the presence of 10 […]. During this incubation GF/B filter plates were immersed in coating solution 0.3% (v/v) Polyethylenimine and 0.2% (w/v) BSA). Following incubation assay plates were harvested onto precoated GF/B filter plates using a Tomtec harvester.
The pIC50, defined as the negative logarithm of the concentration of compound required for 50% reduction in 3,7-Bis[2-(4-nitro[3,5-^3H]phenyl)ethyl]-3,7-diazabicyclo[3.3.1]nonane binding, was determined. A ‘less than’ figure indicates <50% inhibition at the quoted concentration, this being the highest concentration tested.

P2X7 receptor = biological target: T2, P2X7 receptor (Homo sapiens, UniProt Q99572); assay: P2X7 assay (bbATP-induced ethidium bromide fluorescence in THP-1 cells); assay type: cell-based; settings: 10^-5M bbATP agonist, read-out: P2X7 pIC50 (converted)
T2 construct: 200 μl of a suspension of THP-1 cells; endogenous in cells; host or cells: THP-1 cells
T2 sequence (Q99572 1-595): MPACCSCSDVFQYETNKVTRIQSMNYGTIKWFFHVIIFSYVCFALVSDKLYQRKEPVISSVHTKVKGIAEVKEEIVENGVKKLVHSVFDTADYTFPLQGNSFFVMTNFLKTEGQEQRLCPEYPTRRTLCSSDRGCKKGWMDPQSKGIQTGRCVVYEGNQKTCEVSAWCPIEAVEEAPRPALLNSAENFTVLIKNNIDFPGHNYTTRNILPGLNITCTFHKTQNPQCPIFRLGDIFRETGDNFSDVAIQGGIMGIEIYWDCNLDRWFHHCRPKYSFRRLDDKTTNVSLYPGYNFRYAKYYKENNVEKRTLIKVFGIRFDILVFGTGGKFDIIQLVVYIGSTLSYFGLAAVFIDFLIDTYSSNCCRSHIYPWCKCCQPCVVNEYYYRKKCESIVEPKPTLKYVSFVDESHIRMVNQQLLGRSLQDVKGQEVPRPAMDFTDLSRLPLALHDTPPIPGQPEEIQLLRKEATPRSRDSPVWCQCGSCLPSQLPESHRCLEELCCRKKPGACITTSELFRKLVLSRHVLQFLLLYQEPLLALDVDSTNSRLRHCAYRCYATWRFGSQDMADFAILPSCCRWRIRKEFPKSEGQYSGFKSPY
Source text: Certain compounds such as benzoylbenzoyl adenosine triphosphate (bbATP) are known to be agonists of the P2X7 receptor, effecting the formation of pores in the plasma membrane (Drug Development Research (1996), 37(3), p. 126). Consequently, when the receptor is activated using bbATP in the presence of ethidium bromide (a fluorescent DNA probe), an increase in the fluorescence of intracellular DNA-bound ethidium bromide is observed. The increase in fluorescence can be used as a measure of P2X7 receptor activation and therefore to quantify the effect of a compound on the P2X7 receptor.
In this manner, each of the title compounds of the Examples was tested for antagonist activity at the P2X7 receptor. Thus, the test was performed in 96-well flat bottomed microtitre plates, the wells being filled with 250 μl of test solution comprising 200 μl of a suspension of THP-1 cells (2.5×10^6 cells/ml) containing 10^−4M ethidium bromide, 25 μl of a high potassium buffer solution containing 10^−5M bbATP, and 25 μl of the high potassium buffer solution containing concentrations of test compound typically from 30 μM-0.001 μM. The plate was covered with a plastics sheet and incubated at 37° C. for one hour. The plate was then read in a Perkin-Elmer fluorescent plate reader, excitation 520 nm, emission 595 nm, slit widths: Ex 15 nm, Em 20 nm. For the purposes of comparison, bbATP (a P2X7 receptor agonist) and pyridoxal 5-phosphate (a P2X7 receptor antagonist) were used separately in the test as controls. From the readings obtained, a pIC50 figure was calculated for each test compound, this figure being the negative logarithm of the concentration of test compound necessary to reduce the bbATP agonist activity by 50%.

primary rat hepatocytes = assay: In vitro phospholipidosis protocol; assay type: cell-based, Han Wistar rats
Experimental: Assessment of a compounds potential to induce phospholipidosis was determined by an in vitro fluorescent assay which reports the accumulation of phospholipids in primary rat hepatocytes. Hepatocytes were isolated from Han Wistar rats by a 2-stage collagenase digest method. The hepatocytes were then plated on collagen coated 96-well plates in William's E medium. The cells were left to adhere for 1 hour then the media was replaced with a solution of 250 μg·ml^−1 collagen in Hepatozyme cell culture medium.
Cells were then cultured for 48 hours with the medium being changed at 24 hours. At 48 hours post isolation the medium was changed to Hepatozyme supplemented with the fluorescent phospholipid N-(6-tetramethylrhodaminethiocarbamoyl)-1,2-dihexadecanoyl-sn-glycero-3-phosphoethanolamine (DHPE-TRITC) (5 μg·ml^−1). At this time, test compounds were added to the hepatocytes at a range of concentrations in a serial dilution with a final concentration of 0.4% dimethylsulfoxide (used as solvent for test compounds). […]
Images of the hepatocytes were then acquired using an automated microscope platform (GE In Cell Analyser 3000). […] The quantified accumulation observed with test compounds was then normalised to a range of 0, representing the accumulation observed in cells exposed to vehicle only, and 1, representing cells exposed to 10 μM amiodarone. […]

Bioavailability - Rat PK = assay type: in vivo, male Sprague Dawley rats; settings: male, Sprague Dawley, plasma, po 5 mg/kg vs iv 3 mg/kg
Experimental: Pharmacokinetic parameters and concepts are used in DMPK to describe the fate of a compound in the body. The distribution and excretion of a compound are reflected in the plasma concentration-time profile. By appropriate dosing, sampling and analysis key parameters (clearance, volume, half-life, bioavailability etc.) can be determined.
Test compounds were typically dosed intravenously to the right lateral tail vein of male Sprague Dawley rats at a dose level of 3 mg/kg (1 ml/kg) in DMA:water (40:60 v/v). Rats were dosed orally at a dose level of 5 mg/kg (2 ml/kg) in 0.5% hydroxypropylmethylcellulose (HPMC, w/v)/0.1% Tween 80 (v/v) in water). […]
To determine the plasma levels of test compound, 50 μl of methanol was added to 50 μl of each of the test samples, whilst 40 μl of methanol was added to the 50 μl aliquots of control plasma containing 10 μl spikes of authentic standard used to create a calibration line and QCs. […] The resultant supernatants were analysed by HPLC-MSMS after an appropriate, selective and sensitive method had been created by optimizing both cone voltage and collision energy.
Pharmacokinetic parameters were derived from concentration-time using non-compartmental analysis in WinNonLin®. Bioavailability was calculated using the following equation F=AUCPO*DoseIV/AUCIV*DosePO.

T1 sequence (Q12809 whole entry): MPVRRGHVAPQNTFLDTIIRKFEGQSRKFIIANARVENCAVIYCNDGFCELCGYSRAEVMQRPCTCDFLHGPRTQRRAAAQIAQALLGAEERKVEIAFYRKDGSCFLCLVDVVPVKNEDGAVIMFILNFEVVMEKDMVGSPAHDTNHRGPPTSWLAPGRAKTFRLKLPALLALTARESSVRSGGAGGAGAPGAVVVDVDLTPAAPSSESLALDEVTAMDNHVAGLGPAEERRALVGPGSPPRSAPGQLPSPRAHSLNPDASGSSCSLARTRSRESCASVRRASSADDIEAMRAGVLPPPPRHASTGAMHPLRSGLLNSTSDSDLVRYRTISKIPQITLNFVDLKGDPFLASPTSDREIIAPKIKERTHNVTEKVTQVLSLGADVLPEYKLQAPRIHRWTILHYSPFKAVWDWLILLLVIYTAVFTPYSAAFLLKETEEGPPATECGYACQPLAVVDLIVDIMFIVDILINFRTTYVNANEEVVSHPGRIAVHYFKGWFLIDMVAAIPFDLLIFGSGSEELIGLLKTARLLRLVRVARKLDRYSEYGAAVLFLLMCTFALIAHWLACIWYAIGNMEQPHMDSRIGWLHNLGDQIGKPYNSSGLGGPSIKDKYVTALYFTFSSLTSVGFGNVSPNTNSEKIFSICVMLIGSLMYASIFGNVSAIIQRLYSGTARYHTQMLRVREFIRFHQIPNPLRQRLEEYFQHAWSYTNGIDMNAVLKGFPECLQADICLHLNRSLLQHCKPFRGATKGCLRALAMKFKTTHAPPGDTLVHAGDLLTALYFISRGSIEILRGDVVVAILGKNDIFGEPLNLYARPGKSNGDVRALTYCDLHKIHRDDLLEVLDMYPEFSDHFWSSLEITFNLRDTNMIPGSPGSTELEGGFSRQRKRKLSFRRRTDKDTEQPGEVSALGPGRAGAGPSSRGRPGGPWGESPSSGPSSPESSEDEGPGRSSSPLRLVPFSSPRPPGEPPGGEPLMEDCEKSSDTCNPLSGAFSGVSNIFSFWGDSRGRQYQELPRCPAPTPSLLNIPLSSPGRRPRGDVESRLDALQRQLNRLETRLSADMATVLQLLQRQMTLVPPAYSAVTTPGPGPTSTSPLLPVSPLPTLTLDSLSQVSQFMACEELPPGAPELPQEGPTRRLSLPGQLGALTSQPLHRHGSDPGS

SMILES	IC50 [1] [nM]	P2X7:hERG Ratio [1]	IC50 (P2X7 receptor) [nM]	melting point	minimum toxic concentration (primary rat hepatocytes; lowest dose that caused >50% cell toxicity, primary rat hepatocytes) [µM]	phospholipid (DHPE-TRITC) accumulation (primary rat hepatocytes; maximum test concentration of 250 uM, normalised 0 = vehicle, 1 = 10 μM amiodarone)	bioavailability (Bioavailability - Rat PK) [%]
C[C@H]1CCC[C@@](O)(CNC(=O)c2c(Cl)ccc3nc(N4CCC(C)(O)C4)ccc23)C1 (single isomer, unassigned) [Example 4 - isomer 2]	> 100000	>10,000	10	–	–	–	–
C[C@H]1CCC[C@@](O)(CNC(=O)c2c(Cl)ccc3nc(N4CC[C@H](O)C4)ccc23)C1 [Example 1, 6-Chloro-N-{[(1S,3S)-1-hydroxy-3-methylcyclohexyl]methyl}-2-[(3S)-3-hydroxypyrrolidin-1-yl]quinoline-5-carboxamide]	> 100000	>10,000	7.94	222 °C	–	–	–
C[C@H]1CCC[C@@](O)(CNC(=O)c2c(Cl)ccc3nc(N4CC[C@@H](O)C4)ccc23)C1 [Example 2, 6-Chloro-N-{[(1S,3S)-1-hydroxy-3-methylcyclohexyl]methyl}-2-[(3R)-3-hydroxypyrrolidin-1-yl]quinoline-5-carboxamide]	> 100000	>10,000	7.94	222 to 223 °C	> 250	no measurable accumulation	59
C[C@H]1CCC[C@@](O)(CNC(=O)c2c(Cl)ccc3nc(N4CCC(O)CC4)ccc23)C1 [Example 3, 6-Chloro-N-{[(1S,3S)-1-hydroxy-3-methylcyclohexyl]methyl}-2-(4-hydroxypiperidin-1-yl)quinoline-5-carboxamide]	> 100000	>10,000	7.94	120 °C (dec.)	–	–	–
C[C@H]1CCC[C@@](O)(CNC(=O)c2c(Cl)ccc3nc(N4CCC(C)(O)C4)ccc23)C1 (stereo partly drawn) [Example 4, 6-Chloro-N-{[(1S,3S)-1-hydroxy-3-methylcyclohexyl]methyl}-2-(3-hydroxy-3-methylpyrrolidin-1-yl)quinoline-5-carboxamide]	–	–	–	195 to 200 °C (dec.)	–	–	–
